In US20200017496A1 (priority 2017, published 2020):
“And” between values parts separate entries of the source, which are not always exact repeats. Equal values may be shown once. Read-outs that look alike come from different tables or passages of the source.

Assays:
Assay in all cases: MIC of compounds alone and combined with antibacterials, broth microdilution (CLSI)
Format in all cases: cell-based
[1] = tested on: Enterobacter cloacae (ECL) isolates; details: for MIC: Enterobacter cloacae; for MIC ATB in combination: antibacterial combined with AF1 @ 4 μg/mL
Summary of the method: (§1)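 Log-phase isolates at final 5·10^5 CFU/mL in cation-adjusted Mueller-Hinton broth, incubated 16-20 h at 35° C in ambient air. MIC read visually as lowest concentration preventing growth, for compound alone and for antibacterial at each compound concentration.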

[2] = tested on: Klebsiella pneumoniae (KPN) isolates; details: for MIC ATB in combination: AF1 @ 4 μg/mL
Summary of the method: as §1

[3] = tested on: Serratia marcescens (SMA) isolates
Summary of the method: as §1

CC1(C)S[C@@H]2[C@H](NC(=O)[C@H](N)c3ccc(O)cc3)C(=O)N2[C@H]1C(=O)O [AMX, Amoxicillin]
4 µg/mL: MIC ATB in combination ([2]; KPN 270077) | MIC ATB in combination ([2]; KPN 700603)
128 µg/mL and >256 µg/mL: MIC [3]
64 µg/mL: MIC ATB in combination ([2]; KPN 190551) | MIC ATB in combination ([2]; KPN UFR22_O) | MIC ATB in combination ([2]; KPN UFR24) | MIC ATB in combination ([2]; KPN UFR77) | MIC ATB in combination ([2]; KPN UFR215) | MIC ATB in combination ([2]; KPN UFR217) | MIC ATB in combination ([3]; SMA UFR137, AF1 @ 4 μg/mL) | MIC ATB in combination ([3]; SMA UFR138, AF1 @ 4 μg/mL) | MIC ATB in combination ([3]; SMA UFR139, AF1 @ 4 μg/mL) | MIC ATB in combination ([3]; SMA UFR239, AF1 @ 4 μg/mL) | MIC ([3]; Serratia marcescens, strain SMA UFR239 (ESAC), CLA @ 4 μg/ml+ ATB, read-out: MIC)
> 256 µg/mL: MIC ([2]; Klebsiella pneumoniae)
128 µg/mL: MIC ATB in combination [3]
16 µg/mL: MIC ATB in combination ([2]; KPN 190270) | MIC ATB in combination ([2]; KPN 200047) | MIC ATB in combination ([2]; KPN LIB)
>128 µg/mL and 128 µg/mL: MIC [2]
> 512 µg/mL: MIC ([2]; Klebsiella pneumoniae, BAA1898, strain KPN BAA-1898 (TEM-1, SHV-11, SHV-12, KPC-2), CLA @ 4 μg/ml+ ATB, read-out: MIC) | MIC ([2]; Klebsiella pneumoniae, strain KPN 6299 (TEM-1, SHV-11, OXA-163), CLA @ 4 μg/ml+ ATB, read-out: MIC) | MIC ([2]; Klebsiella pneumoniae, strain KPN 131119 (TEM-1, SHV-11, CTX-M-15, OXA-1, OXA-48), CLA @ 4 μg/ml+ ATB, read-out: MIC) | MIC ([2]; Klebsiella pneumoniae, strain KPN LIB (SHV-11, OXA-48), CLA @ 4 μg/ml+ ATB, read-out: MIC)
256 µg/mL: MIC ATB in combination ([1]; strain ECL UFR195) | MIC ATB in combination ([1]; strain ECL UFR197) | MIC ATB in combination ([2]; KPN 6299) | MIC ATB in combination ([2]; KPN 131119) | MIC ATB in combination ([2]; KPN 260252) | MIC ATB in combination ([2]; KPN ARA) | MIC ATB in combination ([2]; KPN BAA-1898) | MIC ATB in combination ([2]; KPN UFR65) | MIC ATB in combination ([2]; KPN UFR66) | MIC ATB in combination ([2]; KPN UFR67) | MIC ATB in combination ([2]; KPN UFR68) | MIC ATB in combination ([2]; KPN UFR221) | MIC ATB in combination ([3]; SMA UFR30, AF1 @ 4 μg/mL) | MIC ATB in combination ([3]; SMA UFR135, AF1 @ 4 μg/mL) | MIC ATB in combination ([3]; SMA UFR136, AF1 @ 4 μg/mL) | MIC ATB in combination ([3]; SMA UFR143, AF1 @ 4 μg/mL)
>512 µg/mL: MIC ATB in combination ([2]; KPN 140513) | MIC ATB in combination ([2]; KPN UFR76) | MIC ATB in combination ([2]; KPN UFR78) | MIC ATB in combination ([2]; KPN UFR79) | MIC ATB in combination ([2]; KPN UFR81) | MIC ATB in combination ([2]; KPN UFR222)
32 µg/mL: MIC ATB in combination ([2]; KPN 200327) | MIC ATB in combination ([2]; KPN 260376) | MIC ATB in combination ([2]; KPN UFR23) | MIC ATB in combination ([2]; KPN UFR216) | MIC ([2]; Klebsiella pneumoniae, strain KPN 200047 (TEM-1, SHV-32, CTX-M-15, OXA-1), CLA @ 4 μg/ml+ ATB, read-out: MIC) | MIC ([2]; Klebsiella pneumoniae, strain KPN 200327 (TEM-1, SHV-1, CTX-M-15, OXA-1), CLA @ 4 μg/ml+ ATB, read-out: MIC) | MIC ([2]; Klebsiella pneumoniae, strain KPN 270077 (TEM-1, SHV-1, CTX-M-15), CLA @ 4 μg/ml+ ATB, read-out: MIC)
8 µg/mL: MIC ([2]; Klebsiella pneumoniae, strain KPN 700603 (SHV-18, OXA-2), CLA @ 4 μg/ml+ ATB, read-out: MIC)
> 128 µg/mL: MIC ([1]; strain ECL UFR195 (TEM-1, CTX-M-15, OXA-1, OXA-48), CLA @ 4 μg/ml+ ATB) | MIC ([1]; strain ECL UFR196 (TEM-1, CTX-M-15, OXA-1, OXA-48), ATB alone) | MIC ([1]; strain ECL UFR196 (TEM-1, CTX-M-15, OXA-1, OXA-48), CLA @ 4 μg/ml+ ATB) | MIC ([1]; strain ECL UFR200 (TEM-1, SHV-12, KPC-2), ATB alone) | MIC ([1]; strain ECL UFR200 (TEM-1, SHV-12, KPC-2), CLA @ 4 μg/ml+ ATB) | MIC ([3]; Serratia marcescens)
512 µg/mL: MIC ATB in combination ([2]; KPN UFR25) | MIC ATB in combination ([2]; KPN UFR220) | MIC ATB in combination ([2]; KPN UFR227O)
> 1020 µg/mL: MIC ([2]; Klebsiella pneumoniae, BAA1898, strain KPN BAA-1898 (TEM-1, SHV-11, SHV-12, KPC-2), ATB alone, read-out: MIC) | MIC ([2]; Klebsiella pneumoniae, strain KPN 6299 (TEM-1, SHV-11, OXA-163), ATB alone, read-out: MIC) | MIC ([2]; Klebsiella pneumoniae, strain KPN UFR68 (TEM-1, SHV-11, CTX-M-15, KPC-3), ATB alone, read-out: MIC)
